From US9708251B2, “Unsaturated fatty alcohol alkoxylates from natural oil metathesis” (Stepan Company, priority 2012, dated 2017)

How the values were obtained:
Assay type in all cases: physicochemical
[1] = Emulsion stability testing of nonionic emulsifiers, aromatic solvent series; parameters: key to 24 h separation, appearance / 1 h separation, appearance / 1 h separation, amount: C = creamy; CO = creamy oil; O = oil; GC = gritty cream; NS = no separation; OC = oily cream; key to Spon. (spontaneity): G = good; F = fair; P = poor
[2] = Emulsion stability testing of nonionic emulsifiers, Hallcomid solvent series; parameters: key: C = creamy; CO = creamy oil; O = oil; GC = gritty cream; NS = no separation; OC = oily cream; Tr. = trace; conditions: Bifenthrin 240 g/L in Hallcomid M-8-10, 34 ppm water
Description: Nonionic samples contain a low amount of water (<1%) and are prepared as emulsifiable concentrates with three pesticides using two different solvent systems. In the aromatic solvent series, the nonionic sample replaces Toximul® 8240 (castor oil ethoxylate, 36 POE, Stepan), and in the Hallcomid™ (N,N-dimethylcaprylamide/N,N-dimethylcapramide, Stepan) solvent series, the nonionic sample replaces Ninex® MT-630F.
Hallcomid Solvent Series.
Sample preparation: The surfactants are combined and stirred until homogeneous, with the nonionic sample melted if needed prior to combination. Controls 1-3 are made by using Ninex MT-630F in the amounts indicated instead of the nonionic sample.
Emulsion Stability Testing
A Mohr pipette is used to feed pesticide/surfactant concentrates to each cylinder.

[3] = Surfactant phase behavior study (cross-polarized microscopy); conditions: room temperature, in deionized water
Outline: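 Saturated analogs serve as comparators. Water dilutions of the product, stepped at 2-4% near transitions, equilibrated between slide and cover glass and assigned phase by cross-polarized microscopy texture at 100-400×, 20-22° C. Boundaries lie within ±5% actives; some samples checked by viscosity at 25° C.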

[4] = Fabric cleaning: compaction (surfactant blends)
Description: The sample is formulated into surfactant blends having high actives content. Two experimental derivatives, A12-13 and A12-21, are evaluated.
In a first experiment, a three-component surfactant blend is prepared. This blend comprises the experimental sample (30 wt. %), a linear alkylbenzene sulfonate (15 wt. %), and an alkyl ether sulfate (15 wt. %). The appearance and viscosity of the blend are compared with those of similar three-component blends in which a standard alcohol ethoxylate replaces the experimental sample.
In a second experiment, a two-component surfactant blend is prepared in which the experimental sample and a linear alkylbenzene sulfonate are combined at a 1:1 actives ratio, beginning with a high actives blend having a cloudy appearance. Water is gradually added and mixed with the surfactant blend at room temperature. […]

[5] = Emulsion stability testing of nonionic emulsifiers, Hallcomid solvent series; parameters: key to 24 h separation, appearance / 1 h separation, appearance / 1 h separation, amount: C = creamy; CO = creamy oil; O = oil; GC = gritty cream; NS = no separation; OC = oily cream; key to Spon. (spontaneity): G = good; F = fair; P = poor
[6] = 2,4-D ester 480 g/L in Exxsol D-110, 34 ppm water
[7] = 2,4-D ester 480 g/L in Exxsol D-110, 1000 ppm water
[8] = Bifenthrin 240 g/L in Aromatic 100, 34 ppm water
[9] = Bifenthrin 240 g/L in Aromatic 100, 1000 ppm water
[10] = Tebuconazole 360 g/L in N-methyl-2-pyrrolidone, 34 ppm water
[11] = Tebuconazole 360 g/L in N-methyl-2-pyrrolidone, 1000 ppm water
[12] = three-component blend: sample 30 wt. %, linear alkylbenzene sulfonate 15 wt. %, alkyl ether sulfate 15 wt. %
[13] = 2,4-D diester 480 g/L in Hallcomid M-8-10, 34 ppm water
[14] = 2,4-D diester 480 g/L in Hallcomid M-8-10, 1000 ppm water
[15] = Bifenthrin 240 g/L in Hallcomid M-8-10, 34 ppm water
[16] = Bifenthrin 240 g/L in Hallcomid M-8-10, 1000 ppm water
[17] = Tebuconazole 360 g/L in Hallcomid M-8-10, 34 ppm water
[18] = Tebuconazole 360 g/L in Hallcomid M-8-10, 1000 ppm water

## CCC=CCCCCCCCCOCCOCCOCCOCCOCCOCCOCCO (mixture of isomers) [A12-13]
[1]; [6]
  1 h separation, amount: 3.5 mL
  1 h separation, appearance: C
  24 h separation, amount: 5 mL
  24 h separation, appearance: C
  Spon. (spontaneity): F
[1]; [7]
  1 h separation, amount: 5.2 mL
  1 h separation, appearance: CO
  24 h separation, amount: 5 mL
  24 h separation, appearance: CO
  Spon. (spontaneity): F
[1]; [8]
  1 h separation, amount: 1 mL
  1 h separation, appearance: C
  24 h separation, amount: 4.9 mL
  24 h separation, appearance: C
  Spon. (spontaneity): F
[1]; [9]
  1 h separation, amount: Tr.
  1 h separation, appearance: C
  24 h separation, amount: 0.5 CO, 1 C
  Spon. (spontaneity): G
[1]; [10]
  1 h separation, amount: 1.8 mL
  1 h separation, appearance: C
  24 h separation, amount: 3 GC, 4 CO
  Spon. (spontaneity): P
[1]; [11]
  1 h separation, amount: 2.4 mL
  1 h separation, appearance: C
  24 h separation, amount: 3.5 mL
  24 h separation, appearance: GC
  Spon. (spontaneity): P
[2]
  24 h separation, amount: Tr.
[3]
  Hexagonal phase region: 35-57 % Actives Level
[4]; [12]
  Appearance, 25° C.: cloudy, flowable gel
  Viscosity: 5400 cPs
[4]; two-component blend with linear alkylbenzene sulfonate, 1:1 actives ratio
  % Actives at which blend is clear and homogeneous at 25° C.: 41 % Actives
[5]; [13]
  1 h separation, amount: 4.4 mL
  1 h separation, appearance: C
  24 h separation, amount: 9.6 mL
  24 h separation, appearance: C
  Spon. (spontaneity): P
[5]; [14]
  1 h separation, amount: 5.2 mL
  1 h separation, appearance: C
  24 h separation, amount: 9 mL
  24 h separation, appearance: C
  Spon. (spontaneity): F
[5]; [15]
  1 h separation, amount: NS
  24 h separation, appearance: C
  Spon. (spontaneity): G
[5]; [16]
  1 h separation, amount: 5.1 mL
  1 h separation, appearance: CO
  24 h separation, amount: 3 O, 2 CO
  Spon. (spontaneity): F
[5]; [17]
  1 h separation, amount: 1.3 mL
  1 h separation, appearance: C
  24 h separation, amount: 4.1 mL
  24 h separation, appearance: C
  Spon. (spontaneity): F
[5]; [18]
  1 h separation, amount: 1.8 mL
  1 h separation, appearance: C
  24 h separation, amount: 4.3 mL
  24 h separation, appearance: C
  Spon. (spontaneity): G

## CCC=CCCCCCCCCOCCOCCOCCOCCOCCO (mixture of isomers) [A12-10]
[1]; [6]
  1 h separation, amount: 0.7 mL
  1 h separation, appearance: C
  24 h separation, amount: 3.9 mL
  24 h separation, appearance: C
  Spon. (spontaneity): F
[1]; [7]
  1 h separation, amount: 4.6 mL
  1 h separation, appearance: CO
  24 h separation, amount: 0.75 O, 4.3 CO
  Spon. (spontaneity): P
[1]; [8]
  1 h separation, amount: 2.3 mL
  1 h separation, appearance: C
  24 h separation, amount: 9 mL
  24 h separation, appearance: C
  Spon. (spontaneity): F
[1]; [9]
  Spon. (spontaneity): F
[1]; [10]
  1 h separation, amount: 2.6 mL
  1 h separation, appearance: C
  24 h separation, amount: 4 mL
  24 h separation, appearance: GC
  Spon. (spontaneity): P
[1]; [11]
  1 h separation, amount: 2.1 mL
  1 h separation, appearance: C
  24 h separation, amount: 3.2 mL
  24 h separation, appearance: GC
  Spon. (spontaneity): P
[2]
  24 h separation, amount: Tr.
[3]
  Lamellar phase region: 50-80 % Actives Level
  Lamellar/Isotropic phase region: 35-50 % Actives Level
[5]; [13]
  1 h separation, amount: 5.3 mL
  1 h separation, appearance: C
  24 h separation, amount: 9.2 mL
  24 h separation, appearance: C
  Spon. (spontaneity): P
[5]; [14]
  1 h separation, amount: 6.8 mL
  1 h separation, appearance: C
  24 h separation, amount: 8.7 mL
  24 h separation, appearance: C
  Spon. (spontaneity): F
[5]; [15]
  1 h separation, amount: NS
  24 h separation, appearance: C
  Spon. (spontaneity): G
[5]; [16]
  1 h separation, amount: 6.1 mL
  1 h separation, appearance: O
  24 h separation, amount: 3 O, 2 CO
  Spon. (spontaneity): F
[5]; [17]
  1 h separation, amount: 2.1 mL
  1 h separation, appearance: C
  24 h separation, amount: 5.1 mL
  24 h separation, appearance: C
  Spon. (spontaneity): F
[5]; [18]
  1 h separation, amount: 2 mL
  1 h separation, appearance: C
  24 h separation, amount: 4.2 mL
  24 h separation, appearance: C
  Spon. (spontaneity): F
